Columns and labels:
[1] = system: T-ALL PDX cells; assay: Transcriptome profiling (Affymetrix microarray) of T-ALL PDX in response to anti-CD3; assay type: in vivo, NSG mice; settings: 40 μg, 6 hours; for expression of genes of interest (TNFR super family pathway, PD1): FIG. 1B; for TCR-induced signature: number of deregulated genes: 2X, p-value<0.05, common to both monoclonal antibodies, in vivo
From the text: Leukemic cells were then collected, flow-cytometry sorted, RNA isolated and analyzed using human Affymetrix arrays. […] FC: Fold Change. C RNA expression analysis (digitalized numeration of transcripts-mRNA) of genes of interest in M106 xenograft overtime after OKT3 treatment using Nanostring arrays: TNFα, LTα, TNFRSF9 (4-1BB), TNFRSF1B (TNFR2), TNFRSF4 (OX40) and PDCD1 (PD1). D Flow cytometry analysis of TNFRSF1B (TNFR2), TNFRSF1A (TNFR1), TNFRSF9 (4-1BB), TNFRSF4 (OX40) and PDCD1 (PD 1) cell surface expression in leukemic cells isolated from mice treated with 40μg of control IgG or OKT3 for 24h.
Total RNA was isolated from flow-cytometry-sorted leukemic cells (FSChi, hCD7+, hCD 45+) (6 hours following treatment with either 40 μg anti-CD 3 mAb or control IgG 2a antibody), using the Rneasy kit (QIAGEN). cRNA synthesis and hybridization of GeneChip Human Gene 2.0ST Array (Affymetrix) were according to the manufacturer's instructions, as described (http: //www-microarrays. u-strasbg. fr). A paired Student's t-test was performed to compare gene intensities in the different biological replicates. […] Hierarchical clustering analysis and pathway analyses on regulated genes (KEGG) were performed by Genosplice company.

[2] = system: caspase 8 activity in T-ALL cells; assay: Caspase 8 activity by flow cytometry in primary leukemic cells from treated leukemic mice; set-up: species or system NSG mice; settings: in vivo, 6 h; FIG. 2
Description: FIG. 2: Caspase 8 activity as measured by flow cytometry in primary leukemic cells collected from leukemic mice treated by control IgG (n=3) or anti-CD3 (OKT3) (n=3) mAbs for 6 h.
Cell suspensions prepared from mouse lymphoid organs, bone marrow, or blood were stained with fluorochrome-labeled antibodies and analyzed on a FACSCanto cytometer (BD Biosciences), as recommended by manufacturer. Data are analyzed using Diva, CellQuest (BD Biosciences) and FlowJo (TreeStar) softwares. Antibodies used are: CD7-FITC (4H9), CD45-APC (2D4) (eBioscience), PD1-Alexa Fluor 647 (EH12.2H7) (Biolegend).

[3] = system: TCRαβ+ and TCRγδ+ T-ALL patients-derived xenografts; settings: cited from earlier work
[4] = in vivo; cited from earlier work

Substance	expression of genes of interest (TNFR super family pathway, PD1) [1]	TCR-induced signature: number of deregulated genes [1]	caspase 8 activity in T-ALL cells [2]	final outcome of monotherapy ([3]; mice carrying TCR+ T-ALL PDX)	anti-leukemic effects over time ([3]; monotherapy of T-ALL PDX)	host survival ([3]; monotherapy of T-ALL PDX)	leukemic cells apoptosis ([3]; monotherapy of T-ALL PDX)	remission ([3]; monotherapy of T-ALL PDX)	adverse effects in humans [4]
OKT3: anti-CD3ε monoclonal antibody (IgG2a)	significantly upregulated	~600	fast induction	–	–	–	–	–	–
foralumab: a fully human anti-CD3 mAb	–	–	–	leukemia relapse and resistance to TCR-directed therapy	profound anti-leukemic effects	improved host survival	within hours	durable remission	only minor adverse effects
teplizumab: a humanized, mutated version of OKT3 which is FDA-approved in prevention of type I diabetes	significantly upregulated	~600	–	–	–	–	–	–	only minor adverse effects

Source: patent publication US20260284190A1, “METHODS FOR THE TREATMENT OF T-CELL ACUTE LYMPHOBLASTIC LEUKEMIA” (Institut Curie, priority 2023, published 2026)
